{"source": "patent US11832638B2", "about": "“N-acyl derivatives of gamma amino-butyric acid and beta alanine as food flavouring compounds” (GIVAUDAN SA, priority 2012, dated 2023)", "key": {"[1]": {"assay": "Strawberry flavoured sugar sweetened yoghurt", "conditions": "2 ppm, 1.5% fat yoghurt base, 8% sucrose, strawberry flavour 0.015%", "source_text": "Strawberry Flavoured Sugar Sweetened Yoghurt\nThe base consisted of a 1.5% fat yoghurt base, sweetened with 8% sucrose by weight, flavoured with a proprietary strawberry flavour @ 0.015%."}, "[2]": {"assay": "Comparison in a strawberry drink", "conditions": "0.5 ppm, 7% sucrose, 0.1% citric acid, strawberry flavour 0.015%", "source_text": "Comparison in a Strawberry Drink\nBase is 7% sucrose, 0.1% citric acid, and a proprietary strawberry flavour @0.015%"}}}
{"compound": "CCCCCCCCCCCCCCCCCC(=O)NCCCC(=O)O", "note": "[C18:0-gaba]", "values": [{"measurement": "taste description", "setting": "[1]", "value": "juicy full, jammy"}, {"measurement": "taste description", "setting": "[2]", "value": "mild creamy, fruity, juicy and long lasting"}]}
